We go through 5 molecules from US20210391038A1, “SPECIFICALLY-SHAPED CRYSTAL OF COMPOUND AND METHOD FOR PRODUCING SAME” (TOWA PHARMACEUTICAL CO., LTD., priority 2018, published 2021).

Read-outs that look alike come from different tables or passages of the source.

Common to all, as to format: physicochemical
A short description of series [1]: Sphericity from SEM images (ImageJ). Also on record: key: 1 = true sphere; closer to 1 = more spherical; mean of ≥5 particles. As to conditions: trihydrate; for sphericity of the spherulite: SEM image analysis, mean of particles.
A short description of series [2]: Particle size distribution (d50, sharpness index). Also on record: key to sharpness index of the crystal thus obtained / sharpness index of the fine powders: calculated by formula from d10, d50, d90; 1.0 = most uniform particle size. The following applies: for d50: samples of dissolution test (Table 4). From the text:
d10 in the present description is a value obtained from a particle size distribution analyzer, and represents a particle size of a particle corresponding to 10% of accumulation from the smaller particle side in the particle size distribution based on the volume.
d50 in the present description is a value obtained from a particle size distribution analyzer, and represents a particle size of a particle corresponding to 50% of accumulation from the smaller particle side in the particle size distribution based on the volume.
“Sharpness index” in the present description is an index representing the uniformity of a particle size of a particle in a powder, and a sharpness index of 1.0 represents a powder having the most uniform particle size. The closer the sharpness index is to 1.0, the more the particle size of the powder is uniform. Specifically, the sharpness index represents a value calculated using the following formula from the values of d10, d50, and d90 measured by a particle size distribution analyzer:
Images for measuring the number of particles were obtained by a scanner GT-X830 manufactured by SEIKO EPSON CORPORATION. The powder X-ray diffraction (XRD) was measured using a desktop X-ray diffraction device MiniFlex300 manufactured by Rigaku Corporation. […] The particle strength was measured using a particle hardness measuring device NEW GRANO manufactured by OKADA SEIKO CO., LTD. […] The purity of a compound was measured by a high performance liquid chromatograph (LC-20A) manufactured by Shimadzu Corporation.

Another series in a line: Particle strength. From the text: Furthermore, a polycrystal with a high particle density also has a high particle strength. When a polycrystal, particularly a spherulite, is used as a raw material for production of drugs, a problem occurs in which wear in a formulation step leads to deterioration of yield or quality or both, and a polycrystal with a high particle strength has an advantage in this regard. When a specifically-shaped crystal obtained by the present invention is a polycrystal, the particle strength is preferably 1.0 MPa or more, more preferably 1.5 MPa or more, still more preferably 2.0 MPa, yet more preferably 2.5 MPa or more, and particularly preferably 3.0 MPa or more. The particle strength is calculated by measuring the force at which a particle breaks when load is applied to one particle and the particle size. Specifically, the particle strength is calculated by the following formula in accordance with JIS R 1639-5. Examples of a measuring device include a particle hardness measuring device NEW GRANO manufactured by OKADA SEIKO CO., LTD. and a micro compression testing machine MCT manufactured by Shimadzu Corporation. […]
The particle strength of the spherulite of esomeprazole magnesium trihydrate obtained in Example 2, the spherulite of esomeprazole magnesium trihydrate obtained in Example 5, and the spherulite of esomeprazole magnesium trihydrate obtained in Example 6 was measured.

Series [3] in a line: Specific surface area (BET fluid process). The following applies: nitrogen, trihydrate. Here is the method: The particle size distribution was measured in a dry manner using a spray particle size distribution analyzer AEROTRAC LDSA-SPR3500A manufactured by Microtrac Inc. The particle size distribution in Examples 2 and 7 was measured in a dry manner using a laser diffraction particle size distribution measurement MASTERSIZER 3000 manufactured by Malvern Panalytical Ltd. SEM images were measured using a scanning electron microscope JSM-IT100 manufactured by JEOL Ltd. Light microscope images were measured using an upright microscope BX53M manufactured by Olympus Corporation and a microscope digital camera DP74 manufactured by Olympus Corporation. […] The powder X-ray diffraction (XRD) was measured using a desktop X-ray diffraction device MiniFlex300 manufactured by Rigaku Corporation. The specific surface area was measured by the BET fluid process (gas used: pure nitrogen) using a fully automatic specific surface area measuring device Macsorb HM-1208 manufactured by Mountech Co., Ltd. The moisture content was measured using a trace moisture measuring device AQ-2200 manufactured by […] SANGYO Co., Ltd. The dissolution profile was measured using μDISS Profiler manufactured by Pion Inc. Centrifugal classification was performed using a high-efficiency precision forced air classifier Lab Calssiel N-01 manufactured by SEISHIN […] […]

Series [4] is described as follows: Measurement of dissolution profile (μDISS Profiler). The following applies: 30 mg in 10 mL phosphate buffer pH 6.8, 37° C., 300 rpm. As to the method:
The dissolution profile is described by the zero-order model, the first-order model, the Weibull model, the Higuchi model, the Hixson-Crowell model, the Korsmeyer-Peppas model, the Baker-Lonsdale model, the Hopfenberg model, and the like. The Weibull model is represented by the following formula: […]
The particle size distribution was measured in a dry manner using a spray particle size distribution analyzer AEROTRAC LDSA-SPR3500A manufactured by Microtrac Inc. The particle size distribution in Examples 2 and 7 was measured in a dry manner using a laser diffraction particle size distribution measurement MASTERSIZER 3000 manufactured by Malvern Panalytical Ltd. SEM images were measured using a scanning electron microscope JSM-IT100 manufactured by JEOL Ltd. Light microscope images were measured using an upright microscope BX53M manufactured by Olympus Corporation and a microscope digital camera DP74 manufactured by Olympus Corporation. […] The powder X-ray diffraction (XRD) was measured using a desktop X-ray diffraction device MiniFlex300 manufactured by Rigaku Corporation. The specific surface area was measured by the BET fluid process (gas used: pure nitrogen) using a fully automatic specific surface area measuring device Macsorb HM-1208 manufactured by Mountech Co., Ltd. The moisture content was measured using a trace moisture measuring device AQ-2200 manufactured by […] […]

Series [5] is described as follows: Particle size from SEM images (equivalent circle diameter, mean particle size, crystal size). As to conditions: SEM image, ImageJ; trihydrate. Here is the method: “Equivalent circle diameter” in the present description is a diameter of a perfect circle corresponding to the area of individual particles in an image of particles taken by SEM, and is calculated from randomly selected 5 to 800 particles using image processing software ImageJ. The equivalent circle diameter of a spherulite obtained by the method of the present invention is preferably 25 μm or more, 30 μm or more, 35 μm or more, 40 μm or more, 45 μm or more, or 50 μm or more and 100 μm or less, 120 μm or less, 150 μm or less, 200 μm or less, 250 μm or less, 300 μm or less, 500 μm or less, or 1,000 μm or less. More preferably, the equivalent circle diameter is 25 to 500 μm or 30 to 300 μm.
The particle size distribution was measured in a dry manner using a spray particle size distribution analyzer AEROTRAC LDSA-SPR3500A manufactured by Microtrac Inc. The particle size distribution in Examples 2 and 7 was measured in a dry manner using a laser diffraction particle size distribution measurement MASTERSIZER 3000 manufactured by Malvern Panalytical Ltd. SEM images were measured using a scanning electron microscope JSM-IT100 manufactured by JEOL Ltd. Light microscope images were measured using an upright microscope BX53M manufactured by Olympus Corporation and a microscope digital camera DP74 manufactured by Olympus Corporation. Images for measuring the number of particles were obtained by a scanner GT-X830 manufactured by SEIKO EPSON CORPORATION. The powder X-ray diffraction (XRD) was measured using a desktop X-ray diffraction device MiniFlex300 manufactured by Rigaku Corporation. The specific surface area was measured by the BET fluid process (gas used: pure nitrogen) using a fully automatic specific surface area measuring device Macsorb HM-1208 manufactured by Mountech Co., Ltd. The moisture content was measured using a trace moisture measuring device AQ-2200 manufactured by […] SANGYO Co., Ltd. The dissolution profile was measured using μDISS Profiler manufactured by Pion Inc. Centrifugal classification was performed using a high-efficiency precision forced air classifier Lab Calssiel N-01 manufactured by SEISHIN […] Co., Ltd. Image analysis was performed using image processing software ImageJ developed by the National Institute of Health (NIH). The particle strength was measured using a particle hardness measuring device NEW GRANO manufactured by OKADA SEIKO CO., LTD. The true density was measured using a dry automatic densimeter AccuPyc II 1340-10CC manufactured by Shimadzu Corporation. The purity of a compound was measured by a high performance liquid chromatograph (LC-20A) manufactured by Shimadzu Corporation.
The spherulite of azithromycin monohydrate produced in Example 12 was cut, and the section was observed by SEM (FIG. 4). The crystal size at the outer edge was 5 to 10 μm, while the crystal size at the center was 0.2 to 1 μm.

Where [6] appears, read: calculated from d10, d50, d90, trihydrate.
[7] abbreviates: dry particle size distribution, volume based, trihydrate.

For the molecule `COc1ccc2[n-]c([S@@+]([O-])Cc3ncc(C)c(OC)c3C)nc2c1.COc1ccc2[n-]c([S@@+]([O-])Cc3ncc(C)c(OC)c3C)nc2c1.O.O.O.[Mg+2]` [Example 6, esomeprazole magnesium trihydrate], in series [1], the “sphericity of the spherulite” value amounted to 0.96±0.01. For the same molecule, in series [2], the “d50 of the crystal thus obtained” value was 91.5 and the “sharpness index of the crystal thus obtained” value (“sharpness index” below) is listed as 1.45. Also, in the series “Particle strength” (trihydrate), the Particle strength was determined as 2.9 ± 0.5 MPa.

`COc1ccc2[n-]c([S@@+]([O-])Cc3ncc(C)c(OC)c3C)nc2c1.COc1ccc2[n-]c([S@@+]([O-])Cc3ncc(C)c(OC)c3C)nc2c1.O.O.O.[Mg+2]` [Ground product of non-spherulite, esomeprazole magnesium trihydrate]: in series [1] (non-spherulite crystals), the “sphericity of the non-spherulite” value is given as 0.45±0.23. Besides, the d50 in series [2] (trihydrate) is 5.1 μm. Moreover, in series [3], the Specific surface area is 44.0 m^2/g.

`COc1ccc2[n-]c([S@@+]([O-])Cc3ncc(C)c(OC)c3C)nc2c1.COc1ccc2[n-]c([S@@+]([O-])Cc3ncc(C)c(OC)c3C)nc2c1.O.O.O.[Mg+2]` [Example 8(1), esomeprazole magnesium trihydrate]: in series [1], the “sphericity of the spherulite” value amounted to 0.95±0.03. For the same molecule, in series [2] (setting [6]), the “sharpness index” value is 2.2. The “d50 of the crystal thus obtained” value in series [2] (setting [7]) was 33.0 μm. Moreover, in series [2] (trihydrate), the d50 is 33.0 μm. In series [4], the “dissolution compared with the non-spherulite” value is on record as “more rapid dissolution”. This molecule also displayed a Specific surface area in series [3] of 22.6 m^2/g.

For the molecule `COc1ccc2[n-]c([S@@+]([O-])Cc3ncc(C)c(OC)c3C)nc2c1.COc1ccc2[n-]c([S@@+]([O-])Cc3ncc(C)c(OC)c3C)nc2c1.O.O.O.[Mg+2]` [Example 5, esomeprazole magnesium trihydrate], the “sphericity of the spherulite” value in series [1] was found to be 0.89±0.05. Besides, the “sharpness index” value in series [2] (setting [6]) was 1.4. Besides, the “d50 of the crystal thus obtained” value in series [2] (setting [7]) is 149.9 μm. This molecule yielded a Particle strength in the series “Particle strength” of 2.3 ± 0.4 MPa.

As to `COc1ccc2[n-]c([S@@+]([O-])Cc3ncc(C)c(OC)c3C)nc2c1.COc1ccc2[n-]c([S@@+]([O-])Cc3ncc(C)c(OC)c3C)nc2c1.O.O.O.[Mg+2]` [Example 3, esomeprazole magnesium trihydrate], the “sphericity of the spherulite” value in series [1] is listed as 0.97±0.01. The equivalent circle diameter in series [5] was determined as 58±7 μm.
